Our source for the IC50 values is patent US10508088B2, “Methods using HDAC11 inhibitors” (FORMA Therapeutics, Inc., priority 2016, dated 2019).

The target of the test is Recombinant N-terminal GST tag full-length human HDAC11 (Homo sapiens (Human), UniProt Q96DB2). Description: Probe binding HDAC11 assay, time resolved fluorescence (TRF). Particulars: read-out: HDAC11 IC50 Range. Here is the method: The probe binding HDAC11 assay was performed using a time resolved fluorescence (TRF) assay format. Recombinant N-terminal GST tag full-length human HDAC11 was expressed and purified from baculovirus in Sf9 insect cells (SignalChem, # H93-30G-1000). Each assay was performed in 1536 black well microplates (Corning, #3936) in a final volume of 8 μL in assay buffer containing 50 mM HEPES (pH 7.5), 50 mM KCl, 50 mM NaCl, 0.5 mM GSH (L-Glutathione reduced, Sigma #G4251), 0.03% BGG (0.22 μM filtered, Sigma, #G7516-25G), and 0.01% Triton X-100 (Sigma, #T9284-10L). 100 nL of 10-point, 3-fold serial dilution in DMSO was pre-dispensed into respective wells of 1536 assay plates for a final test concentration range of 25 μM to 1.3 nM respectively. The final concentration in the assay of HDAC11 and probe (a fluorescein labeled HDAC 11 inhibitor) was 2.5 nM and 20 nM respectively. 4 μL of 2× probe and 2× anti-GST Terbium (Cisbio, #61GSTXLB) was added to assay plates followed by 4 μL of 2×HDAC11. Plates were incubated for 16 hours at room temperature before time resolved fluorescence was read on the Envision (Excitation at 340 nm, and Emission at 485 nm and 535 nm, Perkin Elmer).
Recombinant N-terminal GST tag full-length human HDAC11, sequence (Q96DB2 whole entry): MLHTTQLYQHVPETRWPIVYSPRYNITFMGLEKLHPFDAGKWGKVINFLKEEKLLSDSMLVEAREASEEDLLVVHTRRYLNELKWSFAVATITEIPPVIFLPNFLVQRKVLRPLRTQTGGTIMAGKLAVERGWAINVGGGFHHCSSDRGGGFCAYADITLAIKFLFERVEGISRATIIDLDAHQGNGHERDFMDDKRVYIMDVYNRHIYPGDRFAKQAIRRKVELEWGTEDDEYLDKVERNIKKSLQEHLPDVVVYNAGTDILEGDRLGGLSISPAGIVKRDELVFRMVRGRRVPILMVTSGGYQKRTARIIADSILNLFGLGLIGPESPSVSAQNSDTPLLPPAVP
Data from HDAC11 Assays were reported as percent inhibition (inh) compared with control wells based on the following equation: % inh=1−((FLU−AveLow)/(AveHigh−AveLow)) where FLU=measured time resolved fluorescence. AveLow=average time resolved fluorescence of no enzyme control (n=32). AveHigh=average time resolved fluorescence of DMSO control (n=32). IC50 values were determined by curve fitting of the standard 4 parameter logistic fitting algorithm included in the Activity Base software package: IDBS XE Designer Model205. Data is fitted using the Levenburg Marquardt algorithm.
For `O=C(NO)c1cccc(Nc2nc3cc(Cl)c(Cl)cc3o2)c1` [Example 1-1, 3-(5,6-dichlorobenzo[d]oxazol-2-ylamino)-N-hydroxybenzamide], the IC50 was under 500 nM.

Take `N#Cc1cc2oc(Nc3cccc(C(=O)NO)c3)nc2cc1C(F)(F)F` [Example 2-1, 3-(6-cyano-5-(trifluoromethyl)benzo[d]oxazol-2-ylamino)-N-hydroxybenzamide]: the IC50 was under 500 nM.

Turning to `O=C(NO)c1cccc(Nc2nc3cc(C(F)(F)F)c(-c4ccccc4)cc3o2)c1` [Example 3-1, N-hydroxy-3-(6-phenyl-5-(trifluoromethyl)benzo[d]oxazol-2-ylamino)benzamide], the IC50 is under 500 nM.

As for `O=C(NO)c1cc(Nc2nc3cc(Cl)c(Cl)cc3o2)ccc1F` [Example 4-1, 5-(5,6-dichlorobenzo[d]oxazol-2-ylamino)-2-fluoro-N-hydroxybenzamide], the IC50 was under 500 nM.

Regarding `O=C(NO)c1cccc(Nc2nc3cc(Cl)c(Cl)cc3o2)c1F` [Example 4-2, 3-((5,6-dichlorobenzo[d]oxazol-2-yl)amino)-2-fluoro-N-hydroxybenzamide], the IC50 was under 500 nM.

On to `O=C(NO)c1ccc(F)c(Nc2nc3cc(Cl)c(Cl)cc3o2)c1` [Example 4-3, 3-((5,6-dichlorobenzo[d]oxazol-2-yl)amino)-4-fluoro-N-hydroxybenzamide], for which the IC50 was under 500 nM.

With `O=C(NO)c1cncc(Nc2nc3cc(Cl)c(Cl)cc3o2)c1` [Example 4-5, 5-((5,6-dichlorobenzo[d]oxazol-2-yl)amino)-N-hydroxynicotinamide], the IC50 was under 500 nM.

As to `O=C(NO)c1cc(Nc2nc3cc(Cl)c(Cl)cc3o2)ccn1` [Example 4-6, 4-((5,6-dichlorobenzo[d]oxazol-2-yl)amino)-N-hydroxypicolinamide], the IC50 is under 500 nM.

On to `O=C(NO)c1ccnc(Nc2nc3cc(Cl)c(Cl)cc3o2)c1` [Example 4-7, 2-((5,6-dichlorobenzo[d]oxazol-2-yl)amino)-N-hydroxyisonicotinamide], for which the IC50 was under 500 nM.

On to `O=C(NO)c1ccnc(Nc2nc3cc(Cl)c(Cl)cc3o2)n1` [Example 4-8, 2-((5,6-dichlorobenzo[d]oxazol-2-yl)amino)-N-hydroxypyrimidine-4-carboxamide], for which the IC50 was over 1000 nM.

On to `O=C(NO)c1cccc(Nc2nc3cc(Cl)c(Cl)cc3s2)c1` [Example 5-1, 3-(5,6-dichlorobenzo[d]thiazol-2-ylamino)-N-hydroxybenzamide 2,2,2-trifluoroacetate], for which the IC50 was under 500 nM.

Take `CS(=O)(=O)c1cc2nc(Nc3cccc(C(=O)NO)c3)[nH]c2cc1C#N` [Example 6-1, 3-(5-cyano-6-(methylsulfonyl)-1H-benzo[d]imidazol-2-ylamino)-N-hydroxybenzamide]: the IC50 fell in the range of 500 to 1000 nM.

Turning to `CS(=O)(=O)c1cc2nc(Nc3cccc(C(=O)NO)c3)[nH]c2cc1C(F)(F)F` [Example 7-1, N-hydroxy-3-(6-(methylsulfonyl)-5-(trifluoromethyl)-1H-benzo[d]imidazol-2-ylamino)benzamide], the IC50 was under 500 nM.

`O=C(NO)c1cccc(Nc2nc3ccccc3[nH]2)c1` [Example 8-1, 3-(1H-benzo[d]imidazol-2-ylamino)-N-hydroxybenzamide]: the IC50 was over 1000 nM.

Take `CN(c1cccc(C(=O)NO)c1)c1nc2cc(C#N)c(C(F)(F)F)cc2[nH]1` [Example 9-1, 3-((5-cyano-6-(trifluoromethyl)-1H-benzo[d]imidazol-2-yl)(methyl)amino)-N-hydroxybenzamide]: the IC50 is under 500 nM.

Consider `Cn1c(Nc2cccc(C(=O)NO)c2)nc2cc(C#N)c(C(F)(F)F)cc21` [Example 10-1, 3-(5-cyano-1-methyl-6-(trifluoromethyl)-1H-benzo[d]imidazol-2-ylamino)-N-hydroxybenzamide], for which the IC50 was under 500 nM.

As to `Cn1c(Nc2cccc(C(=O)NO)c2)nc2cc(C(F)(F)F)c(C#N)cc21` [Example 11-1, 3-(6-cyano-1-methyl-5-(trifluoromethyl)-1H-benzo[d]imidazol-2-ylamino)-N-hydroxybenzamide], the IC50 is under 500 nM.

In the case of `Cn1c(Nc2cccc(C(=O)NO)c2)nc2cc(F)c(C#N)cc21` [Example 12-1, 3-(6-cyano-5-fluoro-1-methyl-1H-benzo[d]imidazol-2-ylamino)-N-hydroxybenzamide], the IC50 was under 500 nM.

Regarding `Cn1c(Nc2cccc(C(=O)NO)c2)nc2cc(Cl)c(Cl)cc21` [Example 13-1, 3-(5,6-dichloro-1-methyl-1H-benzo[d]imidazol-2-ylamino)-N-hydroxybenzamide], the IC50 is under 500 nM.

For `CC(C)n1c(Nc2cccc(C(=O)NO)c2)nc2cc(C(F)(F)F)c(C#N)cc21` [Example 14-1, 3-(6-cyano-1-isopropyl-5-(trifluoromethyl)-1H-benzo[d]imidazol-2-ylamino)-N-hydroxybenzamide], the IC50 was under 500 nM.

`CC(C)n1c(Nc2cccc(C(=O)NO)c2)nc2cc(C#N)c(C(F)(F)F)cc21` [Example 15-1, 3-(5-cyano-1-isopropyl-6-(trifluoromethyl)-1H-benzo[d]imidazol-2-ylamino)-N-hydroxybenzamide]: the IC50 was under 500 nM.

On to `CC(C)n1c(Nc2cccc(C(=O)NO)c2)nc2cc(C(F)(F)F)c(-c3ccccc3)cc21` [Example 16-1, N-hydroxy-3-(1-isopropyl-6-phenyl-5-(trifluoromethyl)-1H-benzo[d]imidazol-2-ylamino)benzamide], for which the IC50 was under 500 nM.

Take `CC(C)n1c(Nc2cccc(C(=O)NO)c2)nc2cc(-c3ccccc3)c(C(F)(F)F)cc21` [Example 16-2, N-hydroxy-3-((1-isopropyl-5-phenyl-6-(trifluoromethyl)-1H-benzo[d]imidazol-2-yl)amino)benzamide]: the IC50 is under 500 nM.

Consider `CC(C)n1c(Nc2cccc(C(=O)NO)c2)nc2cc(Cl)c(Cl)cc21` [Example 17-1, 3-(5,6-dichloro-1-isopropyl-1H-benzo[d]imidazol-2-ylamino)-N-hydroxybenzamide], for which the IC50 was under 500 nM.

`COCCn1c(Nc2cccc(C(=O)NO)c2)nc2cc(C(F)(F)F)c(C#N)cc21` [Example 18-1, 3-(6-cyano-1-(2-methoxyethyl)-5-(trifluoromethyl)-1H-benzo[d]imidazol-2-ylamino)-N-hydroxybenzamide]: the IC50 was under 500 nM.

In the case of `COCCn1c(Nc2cccc(C(=O)NO)c2)nc2cc(C#N)c(C(F)(F)F)cc21` [Example 19-1, 3-(5-cyano-1-(2-methoxyethyl)-6-(trifluoromethyl)-1H-benzo[d]imidazol-2-ylamino)-N-hydroxybenzamide], the IC50 is under 500 nM.

On to `COCCn1c(Nc2cccc(C(=O)NO)c2)nc2cc(C(F)(F)F)c(-c3ccccc3)cc21` [Example 20-1, N-hydroxy-3-(1-(2-methoxyethyl)-6-phenyl-5-(trifluoromethyl)-1H-benzo[d]imidazol-2-ylamino)benzamide], for which the IC50 is under 500 nM.

Regarding `COCCn1c(Nc2cccc(C(=O)NO)c2)nc2cc(-c3ccccc3)c(C(F)(F)F)cc21` [Example 20-2, N-hydroxy-3-((1-(2-methoxyethyl)-5-phenyl-6-(trifluoromethyl)-1H-benzo[d]imidazol-2-yl)amino)benzamide], the IC50 was under 500 nM.

With `N#Cc1cc2nc(Nc3cccc(C(=O)NO)c3)n(CCCCCN)c2cc1C(F)(F)F` [Example 21-1, 3-((1-(5-aminopentyl)-5-cyano-6-(trifluoromethyl)-1H-benzo[d]imidazol-2-yl)amino)-N-hydroxybenzamide], the IC50 was under 500 nM.

Take `NCCCCCn1c(Nc2cccc(C(=O)NO)c2)nc2cc(Cl)c(Cl)cc21` [Example 22-1, 3-((1-(5-aminopentyl)-5,6-dichloro-1H-benzo[d]imidazol-2-yl)amino)-N-hydroxybenzamide]: the IC50 is under 500 nM.

Take `NCCCCCn1c(Nc2cccc(C(=O)NO)c2)nc2cc(Cl)c(F)cc21` [Example 22-2, 3-((1-(5-aminopentyl)-5-chloro-6-fluoro-1H-benzo[d]imidazol-2-yl)amino)-N-hydroxybenzamide]: the IC50 was under 500 nM.

Regarding `COCCn1c(Nc2cccc(C(=O)NO)c2)nc2ccccc21` [Example 23-1, N-hydroxy-3-((1-(2-methoxyethyl)-1H-benzo[d]imidazol-2-yl)amino)benzamide], the IC50 is over 1000 nM.

As for `O=C(NO)c1cc(Nc2nc3ccccc3[nH]2)cc2ccccc12` [Example 23-2, 3-((1H-benzo[d]imidazol-2-yl)amino)-N-hydroxy-1-naphthamide], the IC50 was over 1000 nM.

For `COCCn1c(Nc2cc(C(=O)NO)c3ccccc3c2)nc2ccccc21` [Example 23-3, N-hydroxy-3-((1-(2-methoxyethyl)-1H-benzo[d]imidazol-2-yl)amino)-1-naphthamide], the IC50 is over 1000 nM.

With `Cc1cc2nc(Nc3cccc(C(=O)NO)c3)[nH]c2cc1C` [Example 23-4, 3-((5,6-dimethyl-1H-benzo[d]imidazol-2-yl)amino)-N-hydroxybenzamide], the IC50 was under 500 nM.
